We go through one compound from publication PMC11812085, “Structural Dynamics of the Ubiquitin Specific Protease USP30 in Complex with a Cyanopyrrolidine-Containing Covalent Inhibitor” (Journal of Proteome Research, 2025).

The target of the test is T1, USP30 (ubiquitin specific protease 30) (Homo sapiens, UniProt Q70CQ3, DEL179-216/DEL288-305).
T1 construct: residues 64-502Δ179-216 and 288-305
T1 sequence (Q70CQ3 with tags, fused parts or gaps DEL179-216/DEL288-305): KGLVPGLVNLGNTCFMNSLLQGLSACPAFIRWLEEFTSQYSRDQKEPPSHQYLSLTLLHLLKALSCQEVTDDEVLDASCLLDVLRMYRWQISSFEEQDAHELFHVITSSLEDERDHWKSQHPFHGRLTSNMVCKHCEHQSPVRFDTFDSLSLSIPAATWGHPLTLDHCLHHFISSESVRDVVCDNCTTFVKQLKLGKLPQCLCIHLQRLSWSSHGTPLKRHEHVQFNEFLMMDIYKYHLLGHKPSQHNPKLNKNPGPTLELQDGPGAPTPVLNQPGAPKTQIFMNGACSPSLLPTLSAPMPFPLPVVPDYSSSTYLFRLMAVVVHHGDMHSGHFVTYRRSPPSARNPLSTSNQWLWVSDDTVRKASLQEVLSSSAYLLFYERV
In words: RapidFire MS of covalent complex and HDX-MS on recombinant USP30; KI from kinact/KI kinetics with Ub-rhodamine (IC50 […] after […] min preincubation; […] in SH-SY5Y lysate ABPP). In kind it is biochemical.

For `C[C@@H]1C[C@@H](NC(=O)c2ncc(-c3cccc(C#N)c3)o2)CN1C#N` [USP30-I-1], the KI (inactivation) is ~350 nM.
